Reference: patent publication US9566290B2, “Boron-containing small molecules” (Anacor Pharmaceuticals, Inc., priority 2005, dated 2017)

How the values were obtained:
[1] = Solubility in pre-saturated n-octanol or water, visual inspection; format: physicochemical
Protocol: N-Octanol and water were mutually pre-saturated by vigorously stirring a mixture of both solvents for up to 12 h and the mixture was allowed to separate. Solubility in each solvent was determined by adding 10 μL of 20, 40, 200, 1000 and 5000 μg/mL of C10 in DMSO to the pre-saturated n-octanol or water. After the sample was vortexed for 10 sec, the sample was centrifuged for 10 min at ca. 3000 rpm. A visual inspection was made to determine if the sample was clear or if a pellet had formed on the bottom of the tube.

[2] = Nail penetration, 14-day dosing of radiolabeled compound (Hui protocol); format: in vitro ADME
Protocol: Two nail penetration studies were performed based on the protocol in Hui et al., Journal of Pharmaceutical Sciences, 91(1): 189-195 (2002) (“Hui protocol”). The purpose of this study was to determine and compare the penetration and distribution of C10 in vehicle into the human nail plate in vitro relative to 8% ciclopirox w/w in commercial lacquer (Penlac®).
The study was composed of two groups. The compositions (weight %) of the dosage formulations are as follows: […]
Healthy human finger nail plates were collected from adult human cadavers and stored in a closed container at 0-4° C. Before the experiment, the nail plates were gently washed with normal saline to remove any contamination, then re-hydrated by placing them for three hours on a cloth wetted with normal saline. The nail samples were randomly selected into four groups.
Radioactivity of each group is approximately 0.19±0.01 and 0.22±0.03 μCi/10 μL solutions respectively, for ^14C—C10 (group A), and ^14C-ciclopirox (group C).
Surface washing was started in morning 10 min prior to next dosing, the surface of the nail was washed with cotton tips in a cycle, as follows:
A Teflon one-chamber diffusion cell (PermeGear, Inc., Hellertown, Pa.) was used to hold each nail. To approximate physiological conditions, a small cotton ball wetted with 0.1 mL normal saline was placed in the chamber to serve as a nail bed and provide moisture for the nail plate. Every 3 days, 0.1 mL normal saline was injected through the inlet into the chamber to keep the cotton ball wet. The nail plate was placed on a ledge inside the receptor (1.0 cm in diameter and 0.5 cm high). The ventral (inner) surface of the nail was placed face down and rested on the wet cotton ball. The cells were placed on a platform in a large glass holding tank filled with saturated sodium phosphate solution to keep the cells at a constant humidity of 40%.
After completion of the incubation phase, the nail plate was transferred from the diffusion cell to a clean copper nail holder for sampling process. The nail plate was inverted so that the ventral (nail bed) surface now faced up and the dorsal (outer) dosed surfaced faced down. The copper nail holder has an opening as it sits on top of the stage. When the sampling process initiated, the coarse adjustment was adjusted to move the position of the stage until the nail plate was just touching the tip of the cutter. Then the drill was turned on and the fine adjustment was turned to push the stage closer to the drill, removing a nail core sample. After the above process, approximate 0.40-0.50 mm in depth and 7.9 mm in diameter nail pulverized samples were harvested from the center of the ventral (nail bed) surface of the nail.
The powdered nail samples were collected into a glass scintillation vial and weighted. Aliquots of 5.0 mL Packard soluene-350 (Packard Instrument Company, Meriden, Conn.) was added to the scintillation vial to dissolve the powder. The upper part, the intermediate and dorsal layers of the center of the nail, including the area of application of the dose was cut in the same diameter as the sampled area and was then placed into a glass scintillation vial with 5.0 mL packard soluene-350. The rest of the nail was also placed in a glass scintillation vial with 5.0 mL packard soluene-350.
All radioactivity measurements were conducted with a Model 1500 Liquid Scintillation Counter (Packard Instrument Company, Downer Grove, Ill.). The counter was audited for accuracy using sealed samples of quenched and unquenched standards as detailed by the instrument manual. The ^14C counting efficiency is equal to or greater than 95%. All nail samples pre-treated with packard soluene-350 were incubated at 40° C. for 48 hours followed by the addition of 10 mL scintillation cocktail (HIONIC-FLUOR, Packard Instrument Company, Meriden, Conn.). […]

[3] = Water solubility (table of physicochemical properties)

In the case of OB1OCc2cc(F)ccc21 [C10, 5-fluorobenzo[c][1,2]oxaborol-1(3H)-ol], the “solubility in octanol and water, in words” value ([1]; over the concentration range tested) is reported as “very good”, the “Solubility, Octanol Visual” value ([1]; targeted conc 0.800 μg/mL) is reported as “Clear” and the “Solubility, Water Visual” value ([1]; targeted conc 0.800 μg/mL) is reported as “Clear”. For the same molecule, the “Solubility, Octanol Visual” value ([1]; targeted conc 4.00 μg/mL) was “Clear”, the “Solubility, Water Visual” value ([1]; targeted conc 4.00 μg/mL) was “Clear” and the “Solubility, Octanol Visual” value ([1]; targeted conc 20.0 μg/mL) was “Clear”. The “Solubility, Water Visual” value ([1]; targeted conc 20.0 μg/mL) was “Clear”, the “Solubility, Octanol Visual” value ([1]; targeted conc 100 μg/mL) was “Clear” and the “Solubility, Water Visual” value ([1]; targeted conc 100 μg/mL) was “Clear”. For the same molecule, the “absolute amount of drug equivalent per cotton ball sample versus ciclopirox” value [2] was “significantly higher”, the “amount of equivalent in ventral/intermediate center of the nail layer and cotton ball supporting bed versus group C (ciclopirox)” value [2] was “statistically higher” and the “weight normalized concentration of drug equivalent in nail samples versus ciclopirox equivalent” value ([2]; dorsal/intermediate center, ventral/intermediate center and remainder nail, 14-day treatment, p≦0.002) was “significantly higher”. The “Cumulative radioactivity recoveries of carbon-14” value ([2]; human, 14 day) was 88±9.21% of applied dose, the “difference of the two test chemicals in cotton ball supporting bed (C10 versus ciclopirox)” value ([2]; human, 14 day) was 250 times and the solubility [3] was greater than 100 µg/mL.
